Reference: patent US9951035B2, “Selective matrix metalloproteinase inhibitors” (University of Notre Dame du Lac, priority 2014, dated 2018)
Counter-ions that a name gives are not always drawn.

Assay: Stability in buffers of the kinetic assays
Assay type: physicochemical
Details: in words
Description: Human recombinant active MMP-2 and MMP-7, and the catalytic domains of MMP-3 and MMP-14/MT1-MMP were purchased from EMD Chemicals, Inc. (San Diego, Calif., USA); human recombinant catalytic domains of MMP-1, MMP-8, and MMP-9 were purchased from Enzo Life Sciences, Inc. (Farmingdale, N.Y., USA); human recombinant active ADAM9 and ADAM10 were purchased from R&D Systems (Minneapolis, Minn., USA). Fluorogenic substrates MOCAc-Pro-Leu-Gly-Leu-A2pr(Dnp)-Ala-Arg-NH2 (for MMP-2, MMP-7, MMP-9 and MMP-14) and MOCAc-Arg-Pro-Lys-Pro-Val-Glu-Nva-Trp-Arg-Lys(Dnp)-NH2 (for MMP-3) were purchased from Peptides International (Louisville, Ky., USA); Mca-KPLGL-Dpa-AR-NH2 (for MMP-1, MMP-8 and ADAM10) and Mca-PLAQAV-Dpa-RSSSR-NH2 (for ADAM9) were purchased from R&D Systems (Minneapolis, Minn., USA). […] Inhibitor stock solutions (10 mM) were prepared fresh in DMSO before enzyme inhibition assays. We followed the same methodology for enzyme inhibition studies as reported by Page-McCaw et al. (Nat. Rev. Mol. Cell Biol. 2007, 8, 221-233). Enzyme inhibition studies were carried out using a Cary Eclipse fluorescence spectrophotometer (Varian, Walnut Creek, Calif., USA). Compounds 4, 5, 6 and 7 were stable in the buffers that were used in the kinetic assays.

NCc1ccc(Oc2ccc(S(=O)(=O)CC3CS3)cc2)cc1 (stereo not shown) [Compound 5, (4-(4-((Thiiran-2-ylmethyl)sulfonyl)phenoxy)phenyl)methanamine HCl salt]
stability in the buffers used in the kinetic assays: stable
